# In patent publication US20250304544A1, “MOLEPHANTIN DERIVATIVES USEFUL IN THE TREATMENT OF CANCER” (Nanyang Technological University, priority 2021, published 2025):
# Read-outs that look alike come from different tables or passages of the source.
# Columns and labels:
# [1] = system: human hepatoma cell line (SMMC-7221); conditions: cited from earlier work
# [2] = system: human myeloid leukemia cell line K562; conditions: cited from earlier work
# MDA-MB-231 = assay: MTT cytotoxicity assay, MDA-MB-231; format: cell-based; conditions: Homo sapiens, MDA-MB-231, breast adenocarcinoma, 48 hours, absolute IC50
# Experimental: (§1) To test the cytotoxicity effect of the compounds NYH001-NYH005 in various cancer cell types, different cancer cells were treated with the compounds for 48 hours and analyzed using MTT assay. […] Absolute IC50 values of the compounds were calculated (Table 1, FIG. 1A-C).
# Huh7 = assay: MTT cytotoxicity assay, Huh7; format: cell-based; conditions: Homo sapiens, Huh-7, Huh7, liver carcinoma, 48 hours, absolute IC50
# Experimental: as §1
# HCT116 = assay: MTT cytotoxicity assay, HCT116; format: cell-based; conditions: Homo sapiens, HCT-116, HCT116, colon carcinoma, 48 hours, absolute IC50
# Experimental: as §1
# H1299 = assay: MTT cytotoxicity assay, H1299; format: cell-based; conditions: Homo sapiens, NCI-H1299, H1299, lung carcinoma, 48 hours, absolute IC50
# Experimental: as §1
# Hs746T = assay: MTT cytotoxicity assay, Hs746T; format: cell-based; conditions: Homo sapiens, stomach carcinoma, 48 hours, absolute IC50
# Experimental: as §1
# Mcf-7 = assay: MTT cytotoxicity assay, Mcf-7; format: cell-based; conditions: Homo sapiens, MCF7, Mcf-7, breast adenocarcinoma, 48 hours, absolute IC50
# Experimental: as §1
# DLD-1 = assay: MTT cytotoxicity assay, DLD-1; format: cell-based; conditions: Homo sapiens
# Experimental: as §1
# HCT116 cells xenograft = assay: HCT116 subcutaneous tumour xenograft mouse model; format: in vivo; conditions: HCT116 xenografted mice, 25 mg/kg intraperitoneal once every 2 days, after 21 days
# Experimental: (§2) Female J:Nu outbred nude mice (5-6 weeks old) were injected subcutaneously at the right flank with 1×10^6 HCT116 or DLD-1 cells in 1:1 Hank's Balanced salt solution/Matrigel. Mice were assigned into treatment groups (4-5 mice per group) when tumour volumes reached 50-100 mm^3. Vehicle control (Ethanol:Kolliphor EL:saline=1:1:8), NYH001 (25 mg/kg), NYH002 (25 mg/kg) or 5-flurouracil (5-FU, 25 mg/kg) was given once every 2 days by intraperitoneal injection for 3 weeks. Bodyweight of the mice was taken every day and tumour size was measured twice a week. Tumour sizes were calculated using the formula, volume=(length×width^2)/2 mm^3. At the end of the 3 weeks treatment period, the mice were sacrificed and tumours excised. All procedures were approved by the NTU Institutional Animal Care and Use Committee (IACUC) and conducted in accordance with the IACUC protocol A20001.
# AGS = assay: MTT cytotoxicity assay, AGS; format: cell-based; conditions: Homo sapiens, stomach adenocarcinoma, 48 hours, absolute IC50
# Experimental: as §1
# Hep3B = assay: MTT cytotoxicity assay, Hep3B; format: cell-based; conditions: Homo sapiens, liver carcinoma, 48 hours, absolute IC50
# Experimental: as §1
# PC3 = assay: MTT cytotoxicity assay, PC3; format: cell-based; conditions: Homo sapiens, PC-3, PC3, prostate adenocarcinoma, 48 hours, absolute IC50
# Experimental: as §1
# A549 = assay: MTT cytotoxicity assay, A549; format: cell-based; conditions: Homo sapiens, A549, lung carcinoma, 48 hours, absolute IC50
# Experimental: as §1
# Du145 = assay: MTT cytotoxicity assay, Du145; format: cell-based; conditions: Homo sapiens, DU-145, Du145, prostate carcinoma, 48 hours, absolute IC50
# Experimental: as §1
# DLD-1 cells xenograft = assay: DLD-1 subcutaneous tumour xenograft mouse model; format: in vivo; conditions: DLD-1 xenografted mice, 25 mg/kg intraperitoneal once every 2 days, after 21 days
# Experimental: as §2
# cancer cells = assay: Colony formation (clonogenic) assay; format: cell-based; conditions: some cell lines, concentration as low as 1 μM
# Experimental: To further confirm the growth inhibitory effect of compounds on cancer cells, colony formation assays were performed. Cells were treated with various doses of the compounds and allowed to grow for 7-10 days till they form colonies. Colonies were fixed and stained with 0.5% w/v crystal violet, containing methanol. The cell culture plates were rinsed with distilled water before scanning for quantification. Colony counts were quantified using Image J software.
# [3] = system: human KB oral carcinoma cells; conditions: cytotoxic activity / proliferation; cited from earlier work
# [4] = DLD-1, colon adenocarcinoma, 48 hours, MTT, absolute IC50, read-out: IC50
molecule,measurement,setting,value
Tomenphantopin-D,IC50,[1]; read-out: IC50,11200 nM
same,IC50,[2]; read-out: IC50,44800 nM
"C=C(C)C(=O)O[C@H]1C/C(C)=C/C(=O)/C=C(/C)[C@@H](O)[C@H]2OC(=O)C(=C)C12 (some centres unmarked) [NYH001, Molephantin]",IC50,MDA-MB-231,3050 nM
same,IC50,Huh7,2880 nM
same,IC50,HCT116,2630 nM
same,IC50,H1299,2970 nM
same,IC50,Hs746T,1920 nM
same,IC50,[1]; read-out: IC50,5800 nM
same,IC50,Mcf-7,4820 nM
same,IC50,DLD-1; [4],1500 nM
same,reduction of average tumor volume compared to vehicle control,HCT116 cells xenograft,35.4%
same,reduction of average tumor weight compared to vehicle control,HCT116 cells xenograft,41.7%
same,IC50,[2]; read-out: IC50,7900 nM
same,IC50,AGS,1540 nM
same,IC50,Hep3B,3200 nM
same,IC50,PC3,2440 nM
same,IC50,A549,15000 nM
same,IC50,Du145,4180 nM
C=C(C)C(=O)O[C@H]1C/C(C)=C/C(=O)/C=C(/C)[C@@H](OC(=O)c2ccccc2)[C@H]2OC(=O)C(=C)C12 (some centres unmarked) [NYH002],IC50,MDA-MB-231,909 nM
same,reduction of average tumor volume compared to vehicle control,DLD-1 cells xenograft,51.9%
same,reduction of average tumor weight compared to vehicle control,DLD-1 cells xenograft,57.3%
same,colonies formed,cancer cells,did not result in any colonies formed
same,IC50,Huh7,1160 nM
same,IC50,HCT116,869 nM
same,IC50,H1299,1350 nM
same,IC50,Hs746T,468 nM
same,IC50,Mcf-7,2000 nM
same,IC50,DLD-1; [4],353 nM
same,reduction of average tumor volume compared to vehicle control,HCT116 cells xenograft,46.5%
same,reduction of average tumor weight compared to vehicle control,HCT116 cells xenograft,49.3%
same,IC50,AGS,421 nM
same,IC50,Hep3B,911 nM
same,IC50,PC3,1280 nM
same,IC50,A549,5080 nM
same,IC50,Du145,2360 nM
C=C(C)C(=O)O[C@H]1C/C(C)=C/C(=O)/C=C(/C)[C@@H](OC(=O)c2cc(C(F)(F)F)cc(C(F)(F)F)c2)[C@H]2OC(=O)C(=C)C12 (some centres unmarked) [NYH005],IC50,MDA-MB-231,1470 nM
same,IC50,Huh7,2090 nM
same,IC50,HCT116,1590 nM
same,IC50,H1299,1550 nM
same,IC50,Hs746T,1940 nM
same,IC50,Mcf-7,2380 nM
same,IC50,DLD-1; [4],615 nM
same,IC50,AGS,1120 nM
same,IC50,Hep3B,2000 nM
same,IC50,PC3,2480 nM
same,IC50,A549,5860 nM
same,IC50,Du145,3600 nM
Tomenphantopin-B,ED50,[3],5.0 µg/mL
Tomenphantine-A,ED50,[3],3.0 µg/mL
"O=c1[nH]cc(F)c(=O)[nH]1 [5-FU, 5-flurouracil, reference compound]",reduction of average tumor volume compared to vehicle control,DLD-1 cells xenograft,32.3%
same,reduction of average tumor weight compared to vehicle control,DLD-1 cells xenograft,38.7%
same,reduction of average tumor volume compared to vehicle control,HCT116 cells xenograft,10.4%
same,reduction of average tumor weight compared to vehicle control,HCT116 cells xenograft,21.9%
Tomenphantopin-A,ED50,[3],2.5 µg/mL
Tomenphantopin-E,IC50,[1],inactive
same,IC50,[2],inactive
Tomenphantine-B,ED50,[3],2.7 µg/mL
Tomenphantopin-F,IC50,[1],inactive
same,IC50,[2],inactive
C=C(C)C(=O)O[C@H]1C/C(C)=C\[C@@]2(OC)C=C(C)[C@@H](O2)[C@H]2OC(=O)[C@@H](COC)[C@@H]21 [Tomenphantopin-C],IC50,[1],inactive
same,IC50,[2],inactive
C=C(C)C(=O)O[C@H]1C/C(C)=C/C(=O)/C=C(/C)[C@@H](OC(=O)c2ccc([N+](=O)[O-])cc2)[C@H]2OC(=O)C(=C)C12 (some centres unmarked) [NYH007],IC50,"DLD-1; DLD-1 cells, read-out: IC50 (cytotoxic effect)",350 nM
C=C(C)C(=O)O[C@H]1C/C(C)=C/C(=O)/C=C(/C)[C@@H](OC(=O)c2ccc(C(F)(F)F)cc2)[C@H]2OC(=O)C(=C)C12 (some centres unmarked) [NYH004],IC50,MDA-MB-231,1140 nM
same,IC50,Huh7,1590 nM
same,IC50,HCT116,1300 nM
same,IC50,H1299,1670 nM
same,IC50,Hs746T,1190 nM
same,IC50,Mcf-7,2040 nM
same,IC50,DLD-1; [4],933 nM
same,IC50,AGS,1020 nM
same,IC50,Hep3B,1850 nM
same,IC50,PC3,1970 nM
same,IC50,A549,5230 nM
same,IC50,Du145,3000 nM
